Results reported in patent US8247211B2, “Glycopeptide antibiotics” (American Cyanamid Company, priority 2001, dated 2012).
≈ marks a conversion by molar mass, not a printed value.

Columns and labels:
Test in all cases: In vitro antibacterial evaluation: minimum inhibitory concentration (MIC), broth dilution method
Type in all cases: cell-based
Staphylococcus sp. = tested on: Staphylococcus sp.
Summary of the method: (§1)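 Inoculum: 5×10^5 CFU/mL. Range: 64-0.06 μg/mL. Medium: Muller-Hinton II […]; NCCLS M7-A2 broth dilution. Endpoint: lowest concentration inhibiting growth. Strains include methicillin-, penicillin- and/or vancomycin-resistant clinical isolates.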

Escherichia coli = settings: 18 hours at 35° C.
Summary of the method: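 Susceptibility determined by NCCLS-recommended broth dilution (M7-A2), Muller-Hinton II […]. Concentration span 64-0.06 μg/mL, inoculum 5×10^5 CFU/mL. Isolates include strains resistant to methicillin, penicillin and/or vancomycin.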

Enterococcus sp. = settings: 18 hours at 35° C.
Summary of the method: as §1

Streptococcus sp. = settings: 18 hours at 35° C.
Summary of the method: as §1

[1] = broth dilution, inoculum 5×10^5 CFU/mL

With `CC(c1ccccc1)C1NC(=O)CNC(=O)C(CO)NC(=O)C(C(O)C2CNC(=N)N2C2OC(CO)C(O)C(O)C2O)NC(=O)C(C(O)C2CNC(=N)N2)NC(=O)C(Cc2ccc(OC3OC(CO)C(OC4OC5COC6(CC7CCC6(C)C7(C)C)OC5C(O)C4O)C(O)C3O)cc2)NC1=O` (stereo not drawn) [Example 214, Cyclo[glycyl-β-methylphenylalanyl-O-[4-O-[4,6-O-(1,7,7-trimethylbicyclo[2.2.1]hept-2-ylidene)hexopyranosyl]hexopyranosyl]tyrosyl-3-(2-iminoimidazolidin-4-yl)seryl-3-(3-hexopyranosyl-2-iminoimidazolidin-4-yl)serylseryl]] the “MIC Staphylococcus aureus (ATCC 29213)” value (Staphylococcus sp.; strain ATCC 29213) was 2 µg/mL (≈ 1.4 µM), the “MIC Staphylococcus aureus (GC 1131)” value (Staphylococcus sp.; strain GC 1131) was 1 µg/mL (≈ 0.7 µM) and the “MIC Staphylococcus aureus (GC 3051)” value (Staphylococcus sp.; strain GC 3051) was 32 µg/mL (≈ 22.4 µM). For the same compound, the “MIC Staphylococcus aureus (GC 3053)” value (Staphylococcus sp.; strain GC 3053) was 2 µg/mL (≈ 1.4 µM), the “MIC Staphylococcus aureus (GC 4541)” value (Staphylococcus sp.; strain GC 4541) was 2 µg/mL (≈ 1.4 µM) and the “MIC Staphylococcus aureus (GC 4542)” value (Staphylococcus sp.; strain GC 4542) was 1 µg/mL (≈ 0.7 µM). For the same compound, the “MIC Staphylococcus aureus-SMITH (GC 4543)” value (Staphylococcus sp.; strain GC 4543) was 0.5 µg/mL (≈ 0.35 µM), the “MIC Staphylococcus aureus (GC 4544)” value (Staphylococcus sp.; strain GC 4544) was 1 µg/mL (≈ 0.7 µM) and the “MIC Staphylococcus aureus (GC 4545)” value (Staphylococcus sp.; strain GC 4545) was 2 µg/mL (≈ 1.4 µM). The “MIC Staphylococcus haemolyticus (GC 4546)” value (Staphylococcus sp.; strain GC 4546) was 1 µg/mL (≈ 0.7 µM), the “MIC Coagulase Negative Staphylococcus (GC 4547)” value (Staphylococcus sp.; strain GC 4547) was 1 µg/mL (≈ 0.7 µM) and the “MIC Coagulase Negative Staphylococcus (GC 4548)” value (Staphylococcus sp.; strain GC 4548) was 1 µg/mL (≈ 0.7 µM). The “MIC Coagulase Negative Staphylococcus (GC 4549)” value (Staphylococcus sp.; strain GC 4549) was 0.5 µg/mL (≈ 0.35 µM), the “MIC Coagulase Negative Staphylococcus (GC 4551)” value (Staphylococcus sp.; strain GC 4551) was 1 µg/mL (≈ 0.7 µM) and the “MIC Escherichia coli (ATCC 25922)” value (Escherichia coli; Escherichia coli (ATCC 25922)) was 64 µg/mL (≈ 44.8 µM). The “MIC Escherichia coli (GC 4559)” value (Escherichia coli; Escherichia coli (GC 4559)) was 64 µg/mL (≈ 44.8 µM), the “MIC Escherichia coli (GC 4560)” value (Escherichia coli; Escherichia coli (GC 4560)) was 2 µg/mL (≈ 1.4 µM) and the “MIC Enterococcus avium (GC 4558)” value (Enterococcus sp.; Enterococcus avium (GC 4558)) was 2 µg/mL (≈ 1.4 µM). For the same compound, the “MIC Enterococcus faecalis (ATCC 29212)” value (Enterococcus sp.; Enterococcus faecalis (ATCC 29212)) was 2 µg/mL (≈ 1.4 µM), the “MIC Enterococcus faecalis (GC 2242)” value (Enterococcus sp.; Enterococcus faecalis (GC 2242)) was 2 µg/mL (≈ 1.4 µM) and the “MIC Enterococcus faecalis (GC 2691)” value (Enterococcus sp.; Enterococcus faecalis (GC 2691)) was 2 µg/mL (≈ 1.4 µM). For the same compound, the “MIC Enterococcus faecalis (GC 3059)” value (Enterococcus sp.; Enterococcus faecalis (GC 3059)) was 2 µg/mL (≈ 1.4 µM), the “MIC Enterococcus faecalis (GC 4552)” value (Enterococcus sp.; Enterococcus faecalis (GC 4552)) was 2 µg/mL (≈ 1.4 µM) and the “MIC Enterococcus faecalis (GC 4553)” value (Enterococcus sp.; Enterococcus faecalis (GC 4553)) was 2 µg/mL (≈ 1.4 µM). For the same compound, the “MIC Enterococcus faecalis (GC 4554)” value (Enterococcus sp.; Enterococcus faecalis (GC 4554)) was 2 µg/mL (≈ 1.4 µM), the “MIC Enterococcus faecalis (GC 6189)” value (Enterococcus sp.; Enterococcus faecalis (GC 6189)) was 2 µg/mL (≈ 1.4 µM) and the “MIC Enterococcus faecium (GC 2243)” value (Enterococcus sp.; Enterococcus faecium (GC 2243)) was 1 µg/mL (≈ 0.7 µM). For the same compound, the “MIC Enterococcus faecium (GC 4556)” value (Enterococcus sp.; Enterococcus faecium (GC 4556)) was 2 µg/mL (≈ 1.4 µM), the “MIC Enterococcus faecium (GC 4557)” value (Enterococcus sp.; Enterococcus faecium (GC 4557)) was 2 µg/mL (≈ 1.4 µM) and the “MIC Enterococcus avium (GC 4558)” value (Enterococcus sp.; [1]) was 2 µg/mL (≈ 1.4 µM). For the same compound, the “MIC Enterococcus faecalis (ATCC 29212)” value (Enterococcus sp.; [1]) was 2 µg/mL (≈ 1.4 µM), the “MIC Enterococcus faecalis (GC 2242)” value (Enterococcus sp.; [1]) was 2 µg/mL (≈ 1.4 µM) and the “MIC Enterococcus faecalis (GC 2691)” value (Enterococcus sp.; [1]) was 2 µg/mL (≈ 1.4 µM). The “MIC Enterococcus faecalis (GC 3059)” value (Enterococcus sp.; [1]) was 2 µg/mL (≈ 1.4 µM), the “MIC Enterococcus faecalis (GC 4552)” value (Enterococcus sp.; [1]) was 2 µg/mL (≈ 1.4 µM) and the “MIC Enterococcus faecalis (GC 4553)” value (Enterococcus sp.; [1]) was 2 µg/mL (≈ 1.4 µM). The “MIC Enterococcus faecalis (GC 4554)” value (Enterococcus sp.; [1]) was 2 µg/mL (≈ 1.4 µM), the “MIC Enterococcus faecalis (GC 6189)” value (Enterococcus sp.; [1]) was 2 µg/mL (≈ 1.4 µM) and the “MIC Enterococcus faecium (GC 2243)” value (Enterococcus sp.; [1]) was 1 µg/mL (≈ 0.7 µM). For the same compound, the “MIC Enterococcus faecium (GC 4556)” value (Enterococcus sp.; [1]) was 2 µg/mL (≈ 1.4 µM), the “MIC Enterococcus faecium (GC 4557)” value (Enterococcus sp.; [1]) was 2 µg/mL (≈ 1.4 µM) and the “MIC Streptococcus agalactiae (GC 4564)” value (Streptococcus sp.; Streptococcus agalactiae (GC 4564)) was less than 0.12 µg/mL. The “MIC Streptococcus pneumoniae (ATCC 6301)” value (Streptococcus sp.; Streptococcus pneumoniae (ATCC 6301)) was less than 0.12 µg/mL, the “MIC Streptococcus pneumoniae (GC 1894)” value (Streptococcus sp.; Streptococcus pneumoniae (GC 1894)) was less than 0.12 µg/mL and the “MIC Streptococcus pneumoniae (GC 4565)” value (Streptococcus sp.; Streptococcus pneumoniae (GC 4565)) was less than 0.12 µg/mL. For the same compound, the “MIC Streptococcus pyogenes (GC 4563)” value (Streptococcus sp.; Streptococcus pyogenes (GC 4563)) was less than 0.12 µg/mL, the “MIC Streptococcus agalactiae (GC 4564)” value (Streptococcus sp.; [1]) was less than 0.12 µg/mL and the “MIC Streptococcus pneumoniae (ATCC 6301)” value (Streptococcus sp.; [1]) was less than 0.12 µg/mL. The “MIC Streptococcus pneumoniae (GC 1894)” value (Streptococcus sp.; [1]) was less than 0.12 µg/mL, the “MIC Streptococcus pneumoniae (GC 4565)” value (Streptococcus sp.; [1]) was less than 0.12 µg/mL and the “MIC Streptococcus pyogenes (GC 4563)” value (Streptococcus sp.; [1]) was less than 0.12 µg/mL.
